Read-outs that look alike come from different tables or passages of the source.
Legend:
ΔF508 CFTR [1] = molecular target: T1, ΔF508 CFTR (Homo sapiens, UniProt P13569, DEL508-508); test: CSE-HRP: cell surface expression horseradish peroxidase assay in CFBE41o- cells; type: cell-based; conditions: for Emax: CFBE41o-
T1 construct: host or cells: CFBE41o- TetON cells, expression induced with doxycycline
Protocol: A CFBE41o– cell line stably expressing ΔF508 CFTR harboring an HRP-tag in the fourth extracellular loop was obtained from Professor Gergely Lukacs (Department of Physiology, McGill University, Montreal, QC, Canada).[25] Cells were grown in Eagle’s minimal essential medium (Life Technologies) supplemented with 10% FBS, 1% L-glutamine (Life Technologies), 10 mM HEPES (Life Technologies), 200 μg/mL Geneticin (Life Technologies), and 3 μg/mL puromycin (Sigma) in culture flasks coated with 0.01% bovine serum albumin (BSA) (Sigma), 30 μg/mL Purecol (Nutacon), and 0.001% human fibronectin (Sigma).
CFBE41o– TetON cells expressing HRP tagged ΔF508-CFTR were seeded in white 384-well plates (Greiner) at a density of 2000 cells per well. Medium containing 500 ng/mL doxycycline was used to induce expression of ΔF508-CFTR-HRP. After 3 days, cells were treated with corrector or potentiator compounds and transferred to an incubator at 33 °C. On day 4, cells were washed five times with PBS containing Ca^2+ and Mg^2+ using a Bio-Tek plate washer and incubated with a chemiluminescent HRP substrate (SuperSignal West Pico Chemiluminescent Substrate, Thermo Scientific) for 15 min. Chemiluminescence was measured using an Envision plate reader (PerkinElmer). Dose response data was fitted using a 4 parameter hill function of the form Response = neg control + (pos control – neg control)/(1 + 10^(log EC50-concentration)/HillSlope) to determine EC50 values. Percentage efficacy was calculated using the following formula: (max response – neg control)/(C1 response – neg control).

[2] = Plasma protein binding, human; type: in vitro ADME; conditions: human, plasma, pH 7.4, human plasma; read-out: PPB % human (converted)
Protocol: (§1) Plasma protein binding was determined by equilibrium dialysis using the Pierce Red Device plate with inserts (ThermoScientific). Test compound at 5 μM (0.5% DMSO) spiked in freshly thawed human, rat, mouse, or dog plasma (Bioreclamation INC, Westbury, NY, USA) was dialyzed against phosphate-buffered saline (PBS, pH 7.4) at 37 °C under shaking for 4 h. Aliquots were taken from each side of the well, and matrix matched. Proteins were precipitated with an excess of acetonitrile, samples were mixed and centrifuged, and the supernatant was analyzed by liquid chromatography–mass spectrometry/mass spectrometry (LC–MS/MS). Addition of compound peak areas in the buffer chamber and the plasma chamber was considered to be 100% compound.

PK rat = type: in vivo
Protocol: These studies were performed with naïve male Sprague–Dawley rats (Janvier France, 6–8 weeks old). Rats were dosed iv via a bolus in the tail vein with a dose level of 0.1 mg/kg or orally as a single esophageal gavage with a dose level of 5 mg/kg. For the iv route, the compound was formulated in PEG200/water (60/40; v/v). For the oral route, the compound was formulated in MC 0.5% (2/98) as a homogeneous suspension. Before the oral dosing, the animals were deprived of food for at least 12 h before compound administration until 3 h after administration. All animals had free access to the tap water. Blood samples were collected under light anesthesia and placed into tubes containing Li-heparin as an anticoagulant. Blood samples were collected up to 24 h after dosing (n = 3 rats per route). After centrifugation, the resulting plasma samples were assayed by LC-MS/MS with a nongood laboratory practice (non-GLP)-validated method. PK parameters were calculated by noncompartmental analysis using WinNonlin software (Certara, Princeton, NJ, USA).

[3] = Plasma protein binding, rat; type: in vitro ADME; conditions: pH 7.4, read-out: PPB % rat (converted)
Protocol: as §1

ΔF508 CFTR [4] = molecular target: T1, ΔF508 CFTR; test: TECC (transepithelial clamp circuit) in primary CF-derived HBE cells; type: cell-based; conditions: for Emax: read-out: TECC HBE with GLPG2222 % max activation
Protocol: Bronchial epithelial cells isolated from the lungs of patients with CF homozygous for the ΔF508 CFTR mutation were obtained from McGill University (Montreal, QC, Canada) or the University of North Carolina (Chapel Hill, NC, United States). Cells were isolated from lungs obtained from donors undergoing planned transplantation. These primary cells were cultured directly on type IV collagen-coated polycarbonate Transwell supports with a diameter of 6.5 mm and pore size of 0.4 μm (Costar, #3397) for 18–25 days in an air–liquid interface, essentially as previously described for TECC.[23]
Twenty-four hours prior to the electrophysiological recording, corrector and/or potentiator compounds were added on both the apical and basolateral sides. TECC recordings were performed by using the TECC instrument developed and sold by EP Design (Bertem, Belgium). During the recording, the epithelial cells were bathed in a NaCl-Ringer solution (120 mM NaCl, 20 mM HEPES, 1.2 mM CaCl2, 1.2 mM MgCl2, 0.8 mM KH2PO4, 0.8 mM K2HPO4, 5 mM glucose, pH 7.4) on both the basolateral (640 μL) and the apical (160 μL) sides and kept at 37 °C. Corrector and potentiator compounds were readded at the same concentration used during the 24 h pretreatment. Apical amiloride was used to inhibit the endogenous ENaC currents (100 μM), while forskolin (10 μM) was applied on both the apical and basolateral sides to stimulate CFTR. Measurements were done during a 20 min time frame with recordings every 2 min. The transepithelial potential and transepithelial resistance were measured in an open circuit and transformed to Ieq using Ohm’s law. The maximal increase in Ieq (ΔIeq, the difference in current before and after forskolin or potentiator treatment) was used as a measure for the increased CFTR activity. EC50 values were generated by measuring the impact of different concentrations of compounds on ΔIeq in primary cells. For this purpose, each transwell was treated with a different compound concentration. CFTRInh-172 was added apically at 10 μM to assess the specificity of the response. Dose response data was fitted using a 3-parameter hill function of the form Response = Bottom + (Top – Bottom)/(1 + (EC50/concentration)) to determine EC50 values. Percentage efficacy was calculated using the following formula: (max response – neg control)/(C1 response – neg control).

[5] = Hepatocyte stability, rat; type: in vitro ADME; conditions: pooled cryopreserved hepatocytes in suspension, read-out: Hep CLint,u rat (converted)
Protocol: The hepatocyte stability assay was performed by incubation of test compound at 1 μM, 0.03% DMSO in modified Krebs–Henseleit buffer with suspension of pooled cryopreserved hepatocytes (BioIVT, Hicksville, NY, USA) from mouse, rat, dog, or human (BioIVT, Hicksville, NY, USA) at 0.5 million viable hepatocytes/mL. Before adding the hepatocytes (time zero) and after 10, 20, 45, 90, 120, and 180 min of incubation (n = 2) at 37 °C while gently shaking, the reaction was stopped and proteins were precipitated with an excess of acetonitrile containing an internal standard. The samples were mixed, centrifuged, and filtered, and the supernatant was analyzed by liquid chromatography–mass spectrometry/mass spectrometry (LC–MS/MS). The instrument responses (peak areas/IS peak areas) were referenced to the zero-time point samples (considered as 100%) in order to determine the percentage of compound remaining.

[6] = no additional corrector, relative to lumacaftor or 5 (3 μM) positive control, read-out: CSE-HRP % max activation
[7] = no additional corrector, 24 h incubation, 33 °C, geometric mean, read-out: CSE-HRP EC50
[8] = in the presence of C1 corrector 5, relative to 5 (3 μM) positive control, read-out: CSE-HRP with 5 % max activation
[9] = in the presence of C1 corrector 5, read-out: CSE-HRP with 5 EC50

T1 sequence (P13569 with tags, fused parts or gaps DEL508-508): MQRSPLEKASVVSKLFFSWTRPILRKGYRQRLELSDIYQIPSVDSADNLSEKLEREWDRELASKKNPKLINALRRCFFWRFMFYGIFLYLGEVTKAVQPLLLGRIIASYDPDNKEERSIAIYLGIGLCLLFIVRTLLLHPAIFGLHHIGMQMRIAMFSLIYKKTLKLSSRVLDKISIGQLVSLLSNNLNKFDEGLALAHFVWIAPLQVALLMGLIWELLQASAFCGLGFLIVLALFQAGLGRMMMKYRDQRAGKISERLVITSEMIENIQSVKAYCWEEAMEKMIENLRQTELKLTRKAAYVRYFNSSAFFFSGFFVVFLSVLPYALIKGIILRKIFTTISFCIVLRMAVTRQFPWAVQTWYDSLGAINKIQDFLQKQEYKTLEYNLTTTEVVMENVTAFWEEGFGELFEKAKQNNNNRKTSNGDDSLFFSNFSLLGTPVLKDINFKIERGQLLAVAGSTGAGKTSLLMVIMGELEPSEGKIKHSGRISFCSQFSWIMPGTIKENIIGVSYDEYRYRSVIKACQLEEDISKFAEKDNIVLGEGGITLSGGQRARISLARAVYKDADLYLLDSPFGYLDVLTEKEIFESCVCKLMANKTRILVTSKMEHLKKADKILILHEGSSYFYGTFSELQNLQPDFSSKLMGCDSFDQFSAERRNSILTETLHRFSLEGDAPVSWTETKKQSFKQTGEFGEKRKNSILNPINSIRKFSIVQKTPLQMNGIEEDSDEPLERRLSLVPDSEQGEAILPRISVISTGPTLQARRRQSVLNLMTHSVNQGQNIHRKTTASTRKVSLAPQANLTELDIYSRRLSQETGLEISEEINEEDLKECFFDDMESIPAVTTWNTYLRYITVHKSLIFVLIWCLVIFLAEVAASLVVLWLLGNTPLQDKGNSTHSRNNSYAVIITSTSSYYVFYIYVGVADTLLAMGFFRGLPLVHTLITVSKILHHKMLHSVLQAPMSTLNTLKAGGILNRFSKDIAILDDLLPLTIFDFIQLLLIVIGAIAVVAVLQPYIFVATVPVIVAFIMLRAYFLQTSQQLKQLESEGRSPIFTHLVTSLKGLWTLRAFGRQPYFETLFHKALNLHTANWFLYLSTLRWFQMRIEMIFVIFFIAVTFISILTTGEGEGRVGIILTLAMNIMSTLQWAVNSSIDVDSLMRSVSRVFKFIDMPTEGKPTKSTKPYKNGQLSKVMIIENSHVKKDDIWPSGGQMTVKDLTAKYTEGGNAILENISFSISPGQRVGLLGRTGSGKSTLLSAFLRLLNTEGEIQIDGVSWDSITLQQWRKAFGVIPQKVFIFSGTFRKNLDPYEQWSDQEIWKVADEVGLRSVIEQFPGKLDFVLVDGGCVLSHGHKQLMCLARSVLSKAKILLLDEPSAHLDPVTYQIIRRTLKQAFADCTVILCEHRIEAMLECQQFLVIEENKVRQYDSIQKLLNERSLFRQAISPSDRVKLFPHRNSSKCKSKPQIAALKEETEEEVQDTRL

SMILES	Emax (ΔF508 CFTR [1]; [6])	EC50 (ΔF508 CFTR [1]; [7])	further results
Cc1nn(C2CCN(C)CC2)c2nc(C(=O)O)cc(-c3ccc(N4CCOCC4)cc3)c12 [Compound 14]	-2%	10000 nM	
O=C(O)c1cc(-c2ccc(N3CCOCC3)cc2)c2cnn(-c3ccccc3)c2n1 [Compound 15]	116%	1270 nM	
CC(C)c1nn(-c2ccccc2)c2nc(C(=O)O)cc(-c3ccc(N4CCOCC4)cc3)c12 [Compound 16]	184%	448 nM	
O=C(O)c1cc(-c2ccc(N3CCOCC3)cc2)c2c(C3CCC3)nn(-c3ccccc3)c2n1 [Compound 18]			fraction unbound at 4 h, 5 μM [2]: 0.01; clearance (PK rat; male, Sprague-Dawley, plasma, 1 mg/kg, iv dosing, read-out: plasma clearance (converted)): 3.33 mL/min/kg; clearance (PK rat; male, Sprague-Dawley, plasma, iv, 0.1 mg/kg, formula-strings file, unit inferred, read-out: Cl (converted)): 3.33 mL/min/kg; Vd (PK rat; male, Sprague-Dawley, plasma, iv, 0.1 mg/kg, formula-strings file, unit inferred, read-out: Vss): 0.474 L/kg; Vd (PK rat; male, Sprague-Dawley, plasma, iv, 1 mg/kg, 1 mg/kg iv, read-out: Vss): 0.474 L/kg
COCCNc1ccc(-c2cc(C(=O)O)nc3c2c(C)nn3-c2ccccc2)cc1 [Compound 24]	175%	2120 nM	
COCCN(C)c1ccc(-c2cc(C(=O)O)nc3c2c(C)nn3-c2ccccc2)cc1 [Compound 25]	204%	1490 nM	
CC(=O)c1cc(-c2ccc(N3CCOCC3)cc2)c2c(C)nn(-c3ccccc3)c2n1 [Compound 29]	8.2%	10000 nM	
Cc1nn(-c2ccccc2)c2nc(CO)cc(-c3ccc(N4CCOCC4)cc3)c12 [Compound 30]	15%	10000 nM	
Cc1nn(-c2ccccc2)c2nc(C(C)O)cc(-c3ccc(N4CCOCC4)cc3)c12 (centres unmarked) [Compound 31]	8.8%	10000 nM	
Cc1nn(-c2ccccc2)c2nc(C(C)(C)O)cc(-c3ccc(N4CCOCC4)cc3)c12 [Compound 32]	5%	10000 nM	
Cc1nn(-c2ccccc2)c2nc(C(=O)NCC(F)(F)F)cc(-c3ccc(N4CCOCC4)cc3)c12 [Compound 33]	7%	10000 nM	
COc1cc(-c2cc(-c3ccc(N4CCOCC4)cc3)c3c(C)nn(-c4ccccc4)c3n2)n[nH]1 [Compound 34]	4%	10000 nM	
Cc1nn(-c2ccccc2)c2nc(CC(=O)O)cc(-c3ccc(N4CCOCC4)cc3)c12 [Compound 35]	24%	10000 nM	
CS(=O)(=O)NC(=O)c1cc(-c2ccc(N3CCOCC3)cc2)c2c(C3CCC3)nn(-c3ccccc3)c2n1 [Compound 39]			fraction unbound at 4 h, 5 μM [2]: 0.0005
CS(=O)(=O)NC(=O)c1cc(N2CCCCC2)c2c(C3CCC3)nn(-c3ccccc3)c2n1 [Compound 46]			fraction unbound at 4 h, 5 μM [3]: 0.001; fraction unbound at 4 h, 5 μM [2]: < 0.001
COC1CCN(c2cc(C(=O)NS(C)(=O)=O)nc3c2c(C2CCC2)nn3-c2ccccc2)CC1 [Compound 47]			fraction unbound at 4 h, 5 μM [3]: 0.002; fraction unbound at 4 h, 5 μM [2]: 0.002
CS(=O)(=O)NC(=O)c1cc(N2CCC(C#N)CC2)c2c(C3CCC3)nn(-c3ccccc3)c2n1 [Compound 48]			Emax (ΔF508 CFTR [4]; primary ΔF508 homozygous HBE cells, 24 h incubation, with GLPG2222): 265%; EC50 (ΔF508 CFTR [4]; primary ΔF508 homozygous HBE cells, 24 h incubation, with GLPG2222, read-out: TECC HBE with GLPG2222 EC50): 60 nM; fraction unbound at 4 h, 5 μM [3]: 0.003; fraction unbound at 4 h, 5 μM [2]: 0.003
CS(=O)(=O)NC(=O)c1cc(N2CCC(N3CCOCC3)CC2)c2c(C3CCC3)nn(-c3ccc(F)cc3)c2n1 [Compound 50]			Emax (ΔF508 CFTR [4]; HBE, footnote b: after 24 h incubation a fixed 1 μM C2 corrector concentration was added during the recording): 410%; EC50 (ΔF508 CFTR [4]; footnote b: after 24 h incubation a fixed 1 μM C2 corrector concentration was added during the recording, read-out: TECC HBE with GLPG2222 EC50): 46 nM; CLint scaled at 1 μM [5]: < 11.5 mL/min/kg; fraction unbound at 4 h, 5 μM [3]: 0.009; fraction unbound at 4 h, 5 μM [2]: 0.013; CLu rat (PK rat; iv, unbound clearance): 205 mL/min/kg; clearance (PK rat; male, Sprague-Dawley, plasma, 0.1 mg/kg, iv, read-out: CLp rat (converted)): 1.83 mL/min/kg; half-life (PK rat; male, Sprague-Dawley, plasma, 0.1 mg/kg, iv, read-out: t1/2 iv rat (converted)): 3.31 h; Vd (PK rat; male, Sprague-Dawley, plasma, iv, 0.1 mg/kg, iv, read-out: Vss rat): 0.47 L/kg
CC1(C)Cc2c(sc(NC(=O)c3ccn[nH]3)c2C(N)=O)C(C)(C)O1 [GLPG1837, reference compound]			fold (ΔF508 CFTR [4]; no C2 corrector (reference)): 1 fold; EC50 (ΔF508 CFTR [4]; no C2 corrector, C1 corrector GLPG2222 (4) 0.15 μM, read-out: EC50 of potentiator GLPG1837): 13 nM

The next lines start with results.

Emax (ΔF508 CFTR [1]; [6])	EC50 (ΔF508 CFTR [1]; [7])	SMILES	further results
96%	2980 nM	Cc1nn(-c2ccccc2)c2nc(C(=O)NC#N)cc(-c3ccc(N4CCOCC4)cc3)c12 [Compound 36]	
173%	542 nM	COCCN(C)c1ccc(-c2cc(C(=O)O)nc3c2c(C2CCC2)nn3-c2ccccc2)cc1 [Compound 40]	Emax (ΔF508 CFTR [1]; [8]): 325%; EC50 (ΔF508 CFTR [1]; [9]): 448 nM
191%	529 nM	COCCN(C)c1ccc(-c2cc(C(=O)O)nc3c2c(C2CCC2)nn3-c2ccccc2)cn1 [Compound 42]	Emax (ΔF508 CFTR [1]; [8]): 417%; EC50 (ΔF508 CFTR [1]; [9]): 483 nM

From publication PMC11017246, “Discovery of GLPG2737, a Potent Type 2 Corrector of CFTR for the Treatment of Cystic Fibrosis in Combination with a Potentiator and a Type 1 Co-corrector” (Journal of Medicinal Chemistry, 2024)
